Test results: publication PMC7265341, “Quantifying CDK inhibitor selectivity in live cells” (Nature Communications, 2020)

Assays:
CDK11A/Cyclin L2 = target: T1, CDK11A/Cyclin L2 (Homo sapiens, UniProt Q9UQ88); assay: NanoBRET live-cell target engagement, CDK11A-NanoLuc/Cyclin L2 in HEK-293; format: binding; conditions: CDK11a/L2, 10µM
T1 sequence (Q9UQ88 1-783): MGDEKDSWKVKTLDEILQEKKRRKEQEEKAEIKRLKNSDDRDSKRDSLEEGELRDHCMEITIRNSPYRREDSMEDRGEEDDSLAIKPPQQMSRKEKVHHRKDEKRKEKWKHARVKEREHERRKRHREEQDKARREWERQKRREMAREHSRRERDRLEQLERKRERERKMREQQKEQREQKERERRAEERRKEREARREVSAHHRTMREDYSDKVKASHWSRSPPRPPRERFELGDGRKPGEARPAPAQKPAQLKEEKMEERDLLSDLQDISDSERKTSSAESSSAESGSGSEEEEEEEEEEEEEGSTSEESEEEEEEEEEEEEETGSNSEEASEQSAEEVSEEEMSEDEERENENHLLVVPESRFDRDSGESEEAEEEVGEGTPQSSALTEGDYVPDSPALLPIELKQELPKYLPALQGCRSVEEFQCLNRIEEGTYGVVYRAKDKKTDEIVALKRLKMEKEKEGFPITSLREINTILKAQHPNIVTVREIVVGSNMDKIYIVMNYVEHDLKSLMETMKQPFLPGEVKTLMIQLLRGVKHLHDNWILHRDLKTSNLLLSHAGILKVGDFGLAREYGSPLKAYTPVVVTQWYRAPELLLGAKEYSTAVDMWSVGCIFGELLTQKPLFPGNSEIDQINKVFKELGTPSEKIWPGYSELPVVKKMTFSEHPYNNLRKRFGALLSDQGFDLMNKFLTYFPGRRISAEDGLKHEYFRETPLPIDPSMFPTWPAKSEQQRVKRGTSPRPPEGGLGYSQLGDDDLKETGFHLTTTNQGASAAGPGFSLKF

CDK18/Cyclin Y = CDK18/Cyclin Y (Homo sapiens, UniProt Q07002); assay: NanoBRET live-cell target engagement, CDK18-NanoLuc/Cyclin Y in HEK-293; format: binding; conditions: CDK18/Y, 10µM
CDK18/Cyclin Y, sequence (Q07002 whole entry): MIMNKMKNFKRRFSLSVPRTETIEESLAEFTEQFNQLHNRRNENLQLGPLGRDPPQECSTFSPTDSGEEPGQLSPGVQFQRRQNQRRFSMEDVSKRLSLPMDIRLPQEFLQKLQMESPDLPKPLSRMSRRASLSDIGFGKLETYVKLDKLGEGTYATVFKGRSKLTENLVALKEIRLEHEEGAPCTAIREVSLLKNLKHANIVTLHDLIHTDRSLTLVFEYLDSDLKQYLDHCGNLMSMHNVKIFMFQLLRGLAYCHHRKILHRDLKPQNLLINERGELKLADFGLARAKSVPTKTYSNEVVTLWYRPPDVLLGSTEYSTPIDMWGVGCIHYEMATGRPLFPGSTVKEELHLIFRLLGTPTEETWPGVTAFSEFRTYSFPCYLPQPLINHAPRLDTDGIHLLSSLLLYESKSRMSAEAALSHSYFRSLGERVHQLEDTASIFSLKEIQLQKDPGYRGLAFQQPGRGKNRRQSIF
CDK18/Cyclin Y, sequence (Q8ND76 whole entry partner): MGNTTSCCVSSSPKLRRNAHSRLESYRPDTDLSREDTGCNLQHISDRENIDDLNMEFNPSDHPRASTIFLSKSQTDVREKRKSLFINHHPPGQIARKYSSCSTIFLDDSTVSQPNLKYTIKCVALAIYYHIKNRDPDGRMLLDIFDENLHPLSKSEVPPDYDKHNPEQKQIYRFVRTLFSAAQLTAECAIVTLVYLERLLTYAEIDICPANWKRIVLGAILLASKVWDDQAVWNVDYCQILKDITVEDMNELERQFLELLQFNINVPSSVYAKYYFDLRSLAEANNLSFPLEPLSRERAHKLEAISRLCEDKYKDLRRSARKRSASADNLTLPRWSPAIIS

CDK11B/Cyclin L2 = CDK11B/Cyclin L2 (Homo sapiens, UniProt P21127); assay: NanoBRET live-cell target engagement, CDK11B-NanoLuc/Cyclin L2 in HEK-293; format: binding; conditions: CDK11b/L2, 10µM
CDK20/Cyclin H = CDK20/Cyclin H (Homo sapiens, UniProt Q8IZL9); assay: NanoBRET live-cell target engagement, NanoLuc-CDK20/Cyclin H in HEK-293; format: binding; conditions: CDK20/H; 10µM
CDK3/Cyclin E1 = CDK3/Cyclin E1 (Homo sapiens, UniProt Q00526); assay: NanoBRET live-cell target engagement, CDK3-NanoLuc/Cyclin E1 in HEK-293; format: binding; conditions: CDK3/E1, 10µM
CDK5/CDK5R1 = CDK5/CDK5R1 (Homo sapiens, UniProt Q00535); assay: NanoBRET live-cell target engagement, CDK5-NanoLuc/CDK5R1 in HEK-293; format: binding; conditions: CDK5/CDK5R1, 10µM
CDK5/CDK5R1, sequence (Q00535 whole entry): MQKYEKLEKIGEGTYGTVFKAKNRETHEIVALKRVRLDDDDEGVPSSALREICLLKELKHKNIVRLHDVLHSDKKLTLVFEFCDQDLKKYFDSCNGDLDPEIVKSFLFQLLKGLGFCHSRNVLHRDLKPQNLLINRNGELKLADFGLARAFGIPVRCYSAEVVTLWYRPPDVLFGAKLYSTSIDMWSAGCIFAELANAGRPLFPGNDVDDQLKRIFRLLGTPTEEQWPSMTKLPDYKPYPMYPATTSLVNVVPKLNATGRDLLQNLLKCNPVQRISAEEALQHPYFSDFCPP
CDK5/CDK5R1, sequence (Q15078 whole entry partner): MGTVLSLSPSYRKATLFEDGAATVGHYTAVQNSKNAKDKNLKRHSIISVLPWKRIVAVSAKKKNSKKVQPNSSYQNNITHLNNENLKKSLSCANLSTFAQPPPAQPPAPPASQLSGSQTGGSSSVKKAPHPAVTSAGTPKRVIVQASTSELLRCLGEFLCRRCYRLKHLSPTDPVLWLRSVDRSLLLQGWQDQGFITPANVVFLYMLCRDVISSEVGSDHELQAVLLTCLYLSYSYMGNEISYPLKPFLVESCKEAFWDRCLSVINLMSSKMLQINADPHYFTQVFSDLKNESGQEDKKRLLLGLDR

CDK16/Cyclin Y = CDK16/Cyclin Y (Homo sapiens, UniProt Q00536); assay: NanoBRET live-cell target engagement, CDK16-NanoLuc/Cyclin Y in HEK-293; format: binding; conditions: CDK16/Y; 10µM
CDK15/Cyclin Y = CDK15/Cyclin Y (Homo sapiens, UniProt Q96Q40); assay: NanoBRET live-cell target engagement, NanoLuc-CDK15/Cyclin Y in HEK-293; format: binding; conditions: CDK15/Y, 10µM
CDK4/Cyclin D1 = CDK4/Cyclin D1 (Homo sapiens, UniProt P11802); assay: NanoBRET live-cell target engagement, NanoLuc-CDK4/Cyclin D1 in HEK-293; format: binding; conditions: CDK4/D1, 10µM
CDK4/Cyclin D1, sequence (P11802 whole entry): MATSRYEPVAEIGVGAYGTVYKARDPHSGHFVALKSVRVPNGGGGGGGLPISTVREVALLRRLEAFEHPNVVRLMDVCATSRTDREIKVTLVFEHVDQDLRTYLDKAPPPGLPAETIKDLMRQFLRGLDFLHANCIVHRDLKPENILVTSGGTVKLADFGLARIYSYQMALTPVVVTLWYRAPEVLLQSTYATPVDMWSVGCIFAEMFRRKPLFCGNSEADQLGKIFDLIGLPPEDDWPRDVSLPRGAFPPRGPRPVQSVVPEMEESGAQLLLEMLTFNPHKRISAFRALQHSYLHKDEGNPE
CDK4/Cyclin D1, sequence (P24385 whole entry partner): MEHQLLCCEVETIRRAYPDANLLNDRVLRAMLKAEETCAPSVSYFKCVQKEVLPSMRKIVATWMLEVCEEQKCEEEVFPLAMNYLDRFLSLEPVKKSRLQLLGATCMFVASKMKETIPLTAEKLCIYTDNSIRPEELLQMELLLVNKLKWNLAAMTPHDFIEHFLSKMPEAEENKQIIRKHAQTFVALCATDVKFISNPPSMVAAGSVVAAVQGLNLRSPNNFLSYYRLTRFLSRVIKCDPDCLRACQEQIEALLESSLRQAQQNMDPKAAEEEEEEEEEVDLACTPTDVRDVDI

CDK17/Cyclin Y = CDK17/Cyclin Y (Homo sapiens, UniProt Q00537); assay: NanoBRET live-cell target engagement, CDK17-NanoLuc/Cyclin Y in HEK-293; format: binding; conditions: CDK17/Y, 10µM
CDK8/Cyclin C = CDK8/Cyclin C (Homo sapiens, UniProt P49336); assay: NanoBRET live-cell target engagement, NanoLuc-CDK8/Cyclin C in HEK-293; format: binding; conditions: CDK8/C, 10µM
CDK13/Cyclin K = CDK13/Cyclin K (Homo sapiens, UniProt Q14004); assay: NanoBRET live-cell target engagement, CDK13-NanoLuc/Cyclin K in HEK-293; format: binding; conditions: CDK13/K, 10µM
CDK6/Cyclin D1 = CDK6/Cyclin D1 (Homo sapiens, UniProt Q00534); assay: NanoBRET live-cell target engagement, NanoLuc-CDK6/Cyclin D1 in HEK-293; format: binding; conditions: CDK6/D1, 10µM
CDK6/Cyclin D1, sequence (Q00534 whole entry): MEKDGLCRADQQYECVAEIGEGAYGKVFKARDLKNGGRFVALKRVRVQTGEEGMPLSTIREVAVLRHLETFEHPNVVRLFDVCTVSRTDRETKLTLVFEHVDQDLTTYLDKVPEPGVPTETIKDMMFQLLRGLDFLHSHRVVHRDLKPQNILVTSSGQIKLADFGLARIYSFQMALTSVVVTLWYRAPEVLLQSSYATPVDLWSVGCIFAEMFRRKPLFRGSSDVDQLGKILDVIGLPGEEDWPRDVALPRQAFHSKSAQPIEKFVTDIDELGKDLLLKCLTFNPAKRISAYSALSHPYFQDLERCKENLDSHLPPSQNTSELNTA
CDK6/Cyclin D1, sequence (P24385 whole entry partner): as the sequence (P24385 whole entry partner) above

CDK2/Cyclin E1 = CDK2/Cyclin E1 (Homo sapiens, UniProt P24941); assay: NanoBRET live-cell target engagement, CDK2-NanoLuc/Cyclin E1 in HEK-293; format: binding; conditions: CDK2/E1, 10µM
CDK9/Cyclin K = CDK9/Cyclin K (Homo sapiens, UniProt P50750); assay: NanoBRET live-cell target engagement, NanoLuc-CDK9/Cyclin K in HEK-293; format: binding; conditions: CDK9/K, 10µM
CDK14/Cyclin Y = CDK14/Cyclin Y (Homo sapiens, UniProt O94921); assay: NanoBRET live-cell target engagement, CDK14-NanoLuc/Cyclin Y in HEK-293; format: binding; conditions: CDK14/Y, 10µM
CDK14/Cyclin Y, sequence (O94921 whole entry): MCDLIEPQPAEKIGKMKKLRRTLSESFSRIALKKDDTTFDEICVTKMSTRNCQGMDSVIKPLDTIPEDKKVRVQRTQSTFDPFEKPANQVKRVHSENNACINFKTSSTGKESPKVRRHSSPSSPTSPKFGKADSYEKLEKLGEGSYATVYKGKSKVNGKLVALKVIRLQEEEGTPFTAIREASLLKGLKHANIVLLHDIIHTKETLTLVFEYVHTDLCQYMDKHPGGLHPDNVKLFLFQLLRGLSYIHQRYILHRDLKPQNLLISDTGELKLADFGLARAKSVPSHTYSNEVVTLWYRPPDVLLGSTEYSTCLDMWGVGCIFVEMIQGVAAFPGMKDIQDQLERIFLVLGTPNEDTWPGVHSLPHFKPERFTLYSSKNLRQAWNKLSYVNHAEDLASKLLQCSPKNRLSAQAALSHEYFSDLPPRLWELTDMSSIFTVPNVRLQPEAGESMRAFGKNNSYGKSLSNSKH
CDK14/Cyclin Y, sequence (Q8ND76 whole entry partner): as the sequence (Q8ND76 whole entry partner) above

CDK10/Cyclin L2 = CDK10/Cyclin L2 (Homo sapiens, UniProt Q15131); assay: NanoBRET live-cell target engagement, CDK10-NanoLuc/Cyclin L2 in HEK-293; conditions: CDK10/L2, 10µM
CDK19/Cyclin C = CDK19/Cyclin C (Homo sapiens, UniProt Q9BWU1); assay: NanoBRET live-cell target engagement, NanoLuc-CDK19/Cyclin C in HEK-293; conditions: CDK19/C, 10µM
CDK19/Cyclin C, sequence (Q9BWU1 whole entry): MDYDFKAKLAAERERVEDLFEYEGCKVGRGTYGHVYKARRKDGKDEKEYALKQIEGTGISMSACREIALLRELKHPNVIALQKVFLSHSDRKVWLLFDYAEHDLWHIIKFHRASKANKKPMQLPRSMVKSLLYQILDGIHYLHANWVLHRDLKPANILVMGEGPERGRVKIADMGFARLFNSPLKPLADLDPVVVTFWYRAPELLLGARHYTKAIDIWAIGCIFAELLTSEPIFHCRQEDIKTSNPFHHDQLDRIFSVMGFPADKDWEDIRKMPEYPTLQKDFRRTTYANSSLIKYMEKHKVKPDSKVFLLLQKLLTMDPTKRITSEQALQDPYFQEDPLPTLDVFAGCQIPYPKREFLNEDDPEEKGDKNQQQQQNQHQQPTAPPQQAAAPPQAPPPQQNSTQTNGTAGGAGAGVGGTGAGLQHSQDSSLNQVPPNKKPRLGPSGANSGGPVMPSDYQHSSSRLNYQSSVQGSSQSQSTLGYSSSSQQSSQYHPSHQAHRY
CDK19/Cyclin C, sequence (P24863 whole entry partner): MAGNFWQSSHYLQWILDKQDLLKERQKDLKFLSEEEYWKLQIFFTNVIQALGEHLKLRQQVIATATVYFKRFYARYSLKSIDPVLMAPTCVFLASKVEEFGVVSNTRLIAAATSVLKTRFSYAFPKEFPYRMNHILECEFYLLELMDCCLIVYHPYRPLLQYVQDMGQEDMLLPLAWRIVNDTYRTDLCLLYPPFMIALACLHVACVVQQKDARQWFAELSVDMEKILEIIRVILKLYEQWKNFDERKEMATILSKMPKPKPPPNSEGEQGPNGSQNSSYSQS

CDK7 = CDK7 (Homo sapiens, UniProt P50613); assay: NanoBRET live-cell target engagement, NanoLuc-CDK7 in HEK-293; format: binding; conditions: CDK7, 10µM
CDK7, sequence (P50613 whole entry): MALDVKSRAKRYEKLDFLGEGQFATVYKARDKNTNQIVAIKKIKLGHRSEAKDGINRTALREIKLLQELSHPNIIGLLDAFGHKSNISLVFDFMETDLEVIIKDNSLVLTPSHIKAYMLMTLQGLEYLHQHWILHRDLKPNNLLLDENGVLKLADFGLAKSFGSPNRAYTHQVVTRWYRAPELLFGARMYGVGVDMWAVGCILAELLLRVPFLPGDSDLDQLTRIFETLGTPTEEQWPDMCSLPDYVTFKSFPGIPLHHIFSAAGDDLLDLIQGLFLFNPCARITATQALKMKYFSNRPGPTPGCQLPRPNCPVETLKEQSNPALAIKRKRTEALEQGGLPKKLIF

CDK12/Cyclin K = CDK12/Cyclin K (Homo sapiens, UniProt Q9NYV4); assay: NanoBRET live-cell target engagement, CDK12-NanoLuc/Cyclin K in HEK-293; format: binding; conditions: CDK12/K, 10µM
CDK1/Cyclin E1 = CDK1/Cyclin E1 (Homo sapiens, UniProt P06493); assay: NanoBRET live-cell target engagement, CDK1-NanoLuc/Cyclin E1 in HEK-293; format: binding; conditions: CDK1/E1, 10µM
CDK1/Cyclin E1, sequence (P06493 whole entry): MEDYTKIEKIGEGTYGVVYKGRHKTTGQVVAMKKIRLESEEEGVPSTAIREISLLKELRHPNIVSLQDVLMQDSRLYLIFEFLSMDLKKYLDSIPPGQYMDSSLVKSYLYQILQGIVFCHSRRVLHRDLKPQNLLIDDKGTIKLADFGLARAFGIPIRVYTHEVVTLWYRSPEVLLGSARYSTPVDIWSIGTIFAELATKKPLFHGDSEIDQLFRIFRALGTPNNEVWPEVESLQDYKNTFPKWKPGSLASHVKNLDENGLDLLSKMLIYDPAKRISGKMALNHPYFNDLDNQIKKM
CDK1/Cyclin E1, sequence (P24864 whole entry partner): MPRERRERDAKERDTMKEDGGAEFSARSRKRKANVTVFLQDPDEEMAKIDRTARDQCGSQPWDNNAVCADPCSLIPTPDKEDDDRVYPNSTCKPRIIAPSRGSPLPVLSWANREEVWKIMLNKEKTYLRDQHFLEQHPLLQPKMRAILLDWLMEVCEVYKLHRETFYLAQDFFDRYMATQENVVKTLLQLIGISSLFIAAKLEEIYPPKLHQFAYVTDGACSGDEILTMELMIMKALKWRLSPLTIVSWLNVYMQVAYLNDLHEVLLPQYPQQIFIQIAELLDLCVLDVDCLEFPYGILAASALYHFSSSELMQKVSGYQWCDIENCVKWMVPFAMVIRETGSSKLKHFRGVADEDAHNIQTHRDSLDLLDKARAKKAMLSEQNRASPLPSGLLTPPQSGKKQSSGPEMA

Inhibition at 10µM (%) Replicate 1 (CDK11A/Cyclin L2): 8.6%
Inhibition at 10µM (%) Replicate 2 (CDK11A/Cyclin L2): 33.3%
Inhibition at 10µM (%) Average (CDK11A/Cyclin L2; average of replicates): 21.0%
Inhibition at 10µM (%) Replicate 1 (CDK18/Cyclin Y): 37.9%
Inhibition at 10µM (%) Replicate 2 (CDK18/Cyclin Y): 40.9%
Inhibition at 10µM (%) Average (CDK18/Cyclin Y; average of replicates): 39.4%
Inhibition at 10µM (%) Replicate 1 (CDK11B/Cyclin L2): 11.4%
Inhibition at 10µM (%) Replicate 2 (CDK11B/Cyclin L2): 7.8%
Inhibition at 10µM (%) Average (CDK11B/Cyclin L2; average of replicates): 9.6%
Inhibition at 10µM (%) Replicate 1 (CDK20/Cyclin H): 16.2%
Inhibition at 10µM (%) Replicate 2 (CDK20/Cyclin H): 18.8%
Inhibition at 10µM (%) Replicate 1 (CDK3/Cyclin E1): 72.1%
Inhibition at 10µM (%) Replicate 2 (CDK3/Cyclin E1): 71.8%
Inhibition at 10µM (%) Average (CDK3/Cyclin E1; average of replicates): 72.0%
Inhibition at 10µM (%) Replicate 1 (CDK5/CDK5R1): 69.5%
Inhibition at 10µM (%) Replicate 2 (CDK5/CDK5R1): 71.6%
Inhibition at 10µM (%) Average (CDK5/CDK5R1; average of replicates): 70.6%
Inhibition at 10µM (%) Replicate 1 (CDK16/Cyclin Y): 15.7%
Inhibition at 10µM (%) Replicate 2 (CDK16/Cyclin Y): 16.9%
Inhibition at 10µM (%) Replicate 1 (CDK15/Cyclin Y): 25.0%
Inhibition at 10µM (%) Replicate 2 (CDK15/Cyclin Y): 29.8%
Inhibition at 10µM (%) Average (CDK15/Cyclin Y; average of replicates): 27.4%
Inhibition at 10µM (%) Replicate 1 (CDK4/Cyclin D1): 19.9%
Inhibition at 10µM (%) Replicate 2 (CDK4/Cyclin D1): 22.3%
Inhibition at 10µM (%) Average (CDK4/Cyclin D1; average of replicates): 21.1%
Inhibition at 10µM (%) Replicate 1 (CDK17/Cyclin Y): 29.1%
Inhibition at 10µM (%) Replicate 2 (CDK17/Cyclin Y): 25.1%
Inhibition at 10µM (%) Average (CDK17/Cyclin Y; average of replicates): 27.1%
Inhibition at 10µM (%) Replicate 1 (CDK8/Cyclin C): 6.6%
Inhibition at 10µM (%) Replicate 2 (CDK8/Cyclin C): -1.1%
Inhibition at 10µM (%) Average (CDK8/Cyclin C; average of replicates): 2.7%
Inhibition at 10µM (%) Replicate 1 (CDK13/Cyclin K): 7.7%
Inhibition at 10µM (%) Replicate 2 (CDK13/Cyclin K): -21.5%
Inhibition at 10µM (%) Average (CDK13/Cyclin K; average of replicates): -6.9%
Inhibition at 10µM (%) Replicate 1 (CDK6/Cyclin D1): 6.0%
Inhibition at 10µM (%) Replicate 2 (CDK6/Cyclin D1): 6.7%
Inhibition at 10µM (%) Average (CDK6/Cyclin D1; average of replicates): 6.4%
Inhibition at 10µM (%) Replicate 1 (CDK2/Cyclin E1): 75.6%
Inhibition at 10µM (%) Replicate 2 (CDK2/Cyclin E1): 76.1%
Inhibition at 10µM (%) Average (CDK2/Cyclin E1; average of replicates): 75.9%
Inhibition at 10µM (%) Replicate 1 (CDK9/Cyclin K): 18.8%
Inhibition at 10µM (%) Replicate 2 (CDK9/Cyclin K): 27.7%
Inhibition at 10µM (%) Average (CDK9/Cyclin K; average of replicates): 23.2%
Inhibition at 10µM (%) Replicate 1 (CDK14/Cyclin Y): 8.2%
Inhibition at 10µM (%) Replicate 2 (CDK14/Cyclin Y): 16.5%
Inhibition at 10µM (%) Average (CDK14/Cyclin Y; average of replicates): 12.3%
Inhibition at 10µM (%) Replicate 1 (CDK10/Cyclin L2): 13.4%
Inhibition at 10µM (%) Replicate 2 (CDK10/Cyclin L2): 27.0%
Inhibition at 10µM (%) Average (CDK10/Cyclin L2; average of replicates): 20.2%
Inhibition at 10µM (%) Replicate 1 (CDK19/Cyclin C): 16.0%
Inhibition at 10µM (%) Replicate 2 (CDK19/Cyclin C): -0.8%
Inhibition at 10µM (%) Average (CDK19/Cyclin C; average of replicates): 7.6%
Inhibition at 10µM (%) Replicate 1 (CDK7): 45.0%
Inhibition at 10µM (%) Replicate 2 (CDK7): 59.3%
Inhibition at 10µM (%) Average (CDK7; average of replicates): 52.2%
Inhibition at 10µM (%) Replicate 1 (CDK12/Cyclin K): 4.1%
Inhibition at 10µM (%) Replicate 2 (CDK12/Cyclin K): -13.6%
Inhibition at 10µM (%) Average (CDK12/Cyclin K; average of replicates): -4.7%
Inhibition at 10µM (%) Replicate 1 (CDK1/Cyclin E1): 46.5%
Inhibition at 10µM (%) Replicate 2 (CDK1/Cyclin E1): 41.5%
Inhibition at 10µM (%) Average (CDK1/Cyclin E1; average of replicates): 44.0%
SMILES: CCC(CO)Nc1nc(Nc2cccc(-c3ccccn3)c2)c2ncn(C(C)C)c2n1.Cl.O [(R) - DRF053]
